Data published in patent US8889704B2 (Array BioPharma Inc., priority 2011, dated 2014).
Where a name gives a salt, the structure may show the parent alone.

Assays:
Format in all cases: biochemical
recombinant rat PIM-3 = recombinant rat PIM-3 (Rattus norvegicus, UniProt O70444); experiment: PIM-3 Assay (as Example A); conditions: averaged IC50; 30 μM ATP, 3.75 μM PIM2tide, 0.5 nM PIM-3
Summary of the method: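 Recombinant rat PIM-3 (0.5 nM) with 3.75 μM PIM2tide and 30 μM [γ-33P]ATP in MOPS pH 7.4 buffer, 60 min at 22 °C; labelled peptide captured on phosphocellulose filters and counted by scintillation. 10-point curve (top dose 10 μM, 2% DMSO); IC50 from 4-parameter fit of percent of control.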

PIM-1 = PIM-1 (Homo sapiens, UniProt P11309); experiment: Enzyme PIM-1 Assay ([33P]ATP incorporation into PIM2tide, filter plate); conditions: averaged IC50; 35 μM ATP, 7.5 μM PIM2tide, 0.25 nM PIM-1, 60 min at 22° C.
Chain of PIM-1 (P11309 whole entry, species assumed): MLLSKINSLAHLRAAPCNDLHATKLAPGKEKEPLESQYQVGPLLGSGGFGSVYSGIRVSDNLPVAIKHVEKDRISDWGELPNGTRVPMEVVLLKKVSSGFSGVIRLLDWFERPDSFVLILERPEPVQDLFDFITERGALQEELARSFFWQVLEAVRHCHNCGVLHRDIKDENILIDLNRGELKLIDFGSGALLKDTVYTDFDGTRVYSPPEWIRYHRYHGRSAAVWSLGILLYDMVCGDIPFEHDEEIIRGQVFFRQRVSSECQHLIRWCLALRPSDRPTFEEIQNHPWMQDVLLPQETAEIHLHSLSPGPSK
Summary of the method: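 Radiometric assay: 0.25 nM PIM-1 phosphorylates 7.5 μM PIM2tide with 35 μM [γ-33P]ATP in 20 mM MOPS pH 7.4, 10 mM MgCl2, 1 mM DTT, 0.005% Tween-20, 60 min at 22 °C. Product captured on P81 filters, scintillation counted; 10-point 3-fold curve from 10 μM top, 2% DMSO, IC50 by 4-parameter logistic fit of POC.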

[1] = biological target: T1, GST-tagged recombinant full-length human Pim-2 (Homo sapiens, UniProt Q9P1W9); experiment: PIM-2 Assay (as Example A); conditions: averaged IC50; 4 μM ATP, 1.0 μM PIM2tide, 1.5 nM Pim-2
T1 construct: GST-tagged recombinant full-length human Pim-2; GST
T1 sequence (Q9P1W9 whole entry): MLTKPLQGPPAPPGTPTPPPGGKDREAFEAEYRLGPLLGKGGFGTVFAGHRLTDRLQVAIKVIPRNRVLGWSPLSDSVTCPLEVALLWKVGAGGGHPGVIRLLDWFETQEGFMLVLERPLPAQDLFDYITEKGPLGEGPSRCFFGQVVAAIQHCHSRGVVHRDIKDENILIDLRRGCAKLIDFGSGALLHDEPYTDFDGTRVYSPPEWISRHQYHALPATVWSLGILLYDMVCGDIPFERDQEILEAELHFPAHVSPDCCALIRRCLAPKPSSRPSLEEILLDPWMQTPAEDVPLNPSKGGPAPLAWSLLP
Summary of the method: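 Radiometric filter-binding assay: GST-tagged full-length human Pim-2 (1.5 nM) phosphorylates 1.0 μM PIM2tide with 4 μM [γ-33P]ATP for 60 min at 22 °C in pH 7.4 MOPS buffer, 2% DMSO. 10-point 3-fold dilutions from 10 μM top dose; IC50 from 4-parameter fit of percent of control.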

In the case of CO[C@H](C)COc1cc2nc(-c3nnc4ccc([C@@H](N5CC[C@H](N)C5)C(F)(F)F)cn34)ccc2cc1F [Example 325, (S)-1-((R)-2,2,2-trifluoro-1-(3-(6-fluoro-7-((R)-2-methoxypropoxy)quinolin-2-yl)-[1,2,4]triazolo[4,3-a]pyridin-6-yl)ethyl)pyrrolidin-3-amine di-hydrochloride], the IC50 (recombinant rat PIM-3) is reported as 0.13 nM, the IC50 (PIM-1) is reported as 0.06 nM and the IC50 [1] is reported as 102 nM.
COCCOc1ccc2cc(F)c(-c3nnc4ccc([C@@H](N5CC[C@H](N)C5)C(F)(F)F)cn34)nc2c1 [Example 326, (S)-1-((R)-2,2,2-trifluoro-1-(3-(3-fluoro-7-(2-methoxyethoxy)quinolin-2-yl)-[1,2,4]triazolo[4,3-a]pyridin-6-yl)ethyl)pyrrolidin-3-amine] showed an IC50 (recombinant rat PIM-3) of 1.36 nM, an IC50 (PIM-1) of 0.31 nM and an IC50 [1] of 588 nM.
CO[C@H](C)COc1ccc2cc(F)c(-c3nnc4ccc([C@@H](N5CC[C@H](N)C5)C(F)(F)F)cn34)nc2c1 [Example 328, (S)-1-((R)-2,2,2-trifluoro-1-(3-(3-fluoro-7-((R)-2-methoxypropoxy)quinolin-2-yl)-[1,2,4]triazolo[4,3-a]pyridin-6-yl)ethyl)pyrrolidin-3-amine] was tested, and the IC50 (recombinant rat PIM-3) was 1.39 nM, the IC50 (PIM-1) was 0.33 nM and the IC50 [1] was 748 nM.
